Assay results from patent publication US20250312320A1, “METHOD AND TREATMENT FOR OSTEOARTHRITIS AND DISEASES OF CHONDROCYTE HYPERTROPHY” (The Royal Veterinary College, priority 2022, published 2025).
“Also recorded” adds a separate entry of the source.

Tests used:
[1] = system: ATDC5 micromasses; assay: Epigenetic library screen on miniaturised ATDC5 micromasses (alcian blue / alizarin red); assay type: cell-based, mouse
From the text: An epigenetic library consisting of 226 known epigenetic modulator compounds was used to screen against ATDC5 high density micromass cultures to identify any compounds that have an inhibitory effect on matrix mineralisation (catabolic chondrocyte) whilst maintaining and/or promoting healthy extracellular matrix deposition (anabolic chondrocyte). The opposite may be used for identifying molecules that accelerate endochondral ossification for fracture repair i.e. promotes matrix mineralisation.
In the developed screening method, 5.4×10^4 cells in a total volume of 2 μl standard growth media (DMEM-F12, 5% FBS, 1% Ab/Am 10 μg/ml human transferrin, 3×10^−8 M sodium selenite) were seeded onto single wells of a 96-well plate and incubated at 37° C., 5% CO2 in a humidified incubator for 2 hours to allow for cell adherence. 100 μl of differentiation media DMEM-F12, 5% FBS, 1% Ab/Am, 5 μg/ml human transferrin, 1×ITS) containing a single compound was added to each well.
Plates were seeded in duplicate to allow for observation each compound has on glycosaminoglycan and mineral deposition at the end of the culture. This enabled for one 96-well plate to screen up to 96 compounds individually. Multiple plates were set up at the same time allowing the entire library to be screened in parallel. […]
On day 14, culture plates were fixed with 95% ice-cold methanol for 25 minutes and each compound treated well stained with either 1% alcian blue pH 2.5, a stain for glycosaminoglycans indicative of healthy ECM or 1% alizarin red pH 4.2, a stain for mineralisation (calcium) indicative of chondrocyte hypertrophy observed in cartilage disease. Alcian blue stained wells were leached with 8M guanidine hydrochloride and alizarin red leached with 10% cetylpyridinium chloride to quantify staining by absorbance 650 nm and 570 nm, respectively. Leached stain absorbances were plotted on GraphPad Prism for each compound for both alizarin red and alcian blue. To identify hits, the alcian blue:alizarin red ratio was plotted and readings higher than the control group ratios were classified as hits. […]

[2] = system: primary equine chondrocytes; assay: Primary equine chondrocyte micromass treated with BI1347: gene expression; assay type: cell-based; conditions: 1 μM
Protocol: Articular cartilage was isolated, placed into a petri dish containing phosphate buffer saline (PBS) supplemented with 2% Ab/Am (PBS-Ab/Am) and transferred to a laminar flow hood for processing. Cartilage shavings were minced using a sterile scalpel to approximately 1 mm^3 and washed in fresh PBS-Ab/Am by centrifugation at 500×g for 10 minutes. Supernatant was removed and the cartilage pellet resuspended in 5 ml TrypLE™ (Gibco) before incubation at 37° C. for 10 minutes with gentle agitation. Dissociated cartilage fragments were pelleted and washed to remove excess TrypLE and resuspended in DMEM-complete media (DMEM/F12 (Gibco), 1% Ab/Am, 10% FBS) supplemented with 2 mg/ml Collagenase Type II and incubated overnight at 37° C. with gentle agitation. The cartilage digest was pelleted, washed and subsequently resuspended in DMEM-complete. Released cells were counted using a haematocytometer and seeded at 10,000 cells per cm^2. The cultures were incubated at 37° C., 5% CO2 in a humidified incubator for 2 days before refreshing DMEM-complete every 2 days until confluency. For differentiation experiments, primary chondrocytes were differentiated in DMEM/F12 containing 2% FBS, 1% Ab/Am, 1× Insulin-Transferrin-Selenium premix, 10 ng/ml TGFβ3 (primary chondrocyte differentiation media).
For primary equine chondrocytes, chondrocytes were seeded in 10 μl micromasses as above and differentiated for 14 days in presence of primary chondrocyte differentiation media supplemented with 1 μM BI1347 before processing for gene expression analysis as described above.

[3] = system: MC3T3 cells; assay: MC3T3 cell viability assay (resazurin); assay type: cell-based; conditions: 1 μM, day 7 and 14
Protocol: To determine potential toxicity of CDK8i on MC3T3 cells, a cell viability assay was carried out on day 7 and 14 of MC3T3 cells treated with 1 μM BI1347. Briefly, culture media was replaced with differentiation media containing 0.2 mM resazurin dye and incubated for 2 hours at 37° C. before measurement at 570 nm normalized to 600 nm.

[4] = system: THP-1 derived macrophages; assay: LPS stimulated THP-1 derived macrophages: gene expression; assay type: cell-based, human; conditions: 1 μM, 1 h pretreatment + 24 h LPS
Protocol: THP-1 monocytes were differentiated into macrophages via treatment with 50 ng/ml phorbol 12-myristate 13-acetate (PMA) in THP-1 growth media (RPMI-1640, 100 μg/ml Primocin, 10% FBS, 0.05 mM β-mercaptoethanol) for 48 hours. Macrophages were then washed twice to remove PMA containing media before a 1-hour pretreatment with 1 μM BI1347 or 100 nM MSC2530818. Inflammatory stimulation was then initiated via the addition of lug/ml lipopolysaccharide (LPS) for 24 hours in the presence of 1 μM BI1347 or 100 nM MSC2530818. Gene expression analysis was subsequently carried out as previously outlined. For MSC2530818 treated/LPS stimulated cells, media supernatant was used for IL-1β cytokine analysis quantification via ELISA (PeproTech, ABTS Human IL-1β development ELISA) as per manufacturer instructions.

[5] = compound present 14 days, compared to negative control BI1374 and DMSO

## CN(C)C(=O)Cn1cc(-c2ccc(-c3cncc4ccccc34)cc2)cn1 [BI1347]
[1]; [5]
  glycosaminoglycan (GAG) deposition (alcian blue): promotes glycosaminoglycan (GAG) deposition
  mineralisation (alizarin red): reduces mineralisation
[1]; vs window of DMSO control ratios
  alcian blue:alizarin red absorbance ratio (hit identification): modulator of endochondral ossification
[2]; day 14
  ACAN expression, increase vs DMSO: 14 fold
  RUNX2 expression vs DMSO: identical; also recorded: no increase
[2]; day 14 (N.S)
  SOX9 expression, increase vs DMSO: 1.5 fold
[2]; day 14, N=1
  COL2A1 expression, increase vs DMSO: 9 fold
[3]
  cell viability (resazurin) vs DMSO: no difference in absorbance; also recorded: no toxicity observed
[4]
  NF-κB gene expression, decrease vs DMSO: 6 fold
  TLR4 gene expression, decrease vs DMSO: 9 fold
